From patent US4520022A, “Substituted vinyl cephalosporins” (priority 1983, dated 1985)
Values after ≈ are worked out from the molar mass of the structure shown. Like-named read-outs stand apart in the source and are kept apart here.

Assays:
in vivo = details: mouse; for half-life: T1/2
P. acnes A21933 = experiment: In vitro activity against anaerobes (MIC), P. acnes; assay type: cell-based; details: Cutibacterium acnes; Gp cocci; P. acnes A21933; read-out: MIC
[1] = test system: Gp Ib: S. aureus 193, BX-1633-2 A9606, A15092, Russell, A9602; details: Staphylococcus aureus
N. meningitidis = experiment: In vitro activity against Neisseria (MIC), N. meningitidis; assay type: cell-based
B. fragilis = experiment: In vitro activity against anaerobes (MIC), B. fragilis; assay type: cell-based; details: Bacteroides fragilis
S. pneumoniae = experiment: In vitro activity against Streptococci (MIC), S. pneumoniae; assay type: cell-based; details: Streptococcus pneumoniae, Compound 9 lot 2
Gp, rods; Gp, cocci = experiment: microbe, parasite or virus in culture; assay type: cell-based, C. difficile; C. perfringens; P. acnes; P. anaerobius; details: read-out: MIC, Geometric Mean
[2] = mouse, in vivo
S. aureus Smith = experiment: Protective dose, mice infected with lethal inoculum, oral treatment, S. aureus Smith; assay type: in vivo; details: Staphylococcus aureus, po, 120 h, oral, read-out: Protective dose (PD50), S. aureus Smith
[3] = test system: Gp Ia, Gp Ib, Gn Ia organisms of Table 2; experiment: Test medium comparison, agar dilution MIC, Mueller-Hinton agar versus nutrient agar
H. influenzae = experiment: In vitro activity against Haemophilis (MIC), H. influenzae; assay type: cell-based; details: Haemophilus influenzae, Compound 9 lot 2
S. pyogenes = experiment: In vitro activity against Streptococci (MIC), S. pyogenes; assay type: cell-based; details: Streptococcus pyogenes, Compound 9 lot 2
[4] = test system: Gp Ia: S. aureus Smith A9537, A9497, Terajima, A9534, A9601; details: Staphylococcus aureus
E. coli Juhl = experiment: Protective dose, mice infected with lethal inoculum, oral treatment, E. coli Juhl; assay type: in vivo
H. influenza A9729 = experiment: Protective dose PD50, mice infected with lethal inoculum, oral treatment, H. influenza A9729; assay type: in vivo; details: Mus musculus, 120 h
Text: The structure activity correlations drawn from the foregoing in vitro studies are born out by the results of in vivo studies in mice. Table 4 is a tabulation of the protective doses for mice infected with a lethal inoculum of a bacteria. Two different bacteria were employed in the studies, one a Gram+ organism and the other a Gram- organism. The protective dose (PD50) is that dose which when administered to a group of infected mice results in 50% survival after five days. Normally untreated infected mice die within three days following injection of the lethal inoculum.
Protective Dose PD50 for Mice Infected with Lethal Inoculum

S. aureus BX-1633 = experiment: Protective dose PD50, mice infected with lethal inoculum, oral treatment, S. aureus BX-1633; assay type: in vivo; details: Staphylococcus aureus, BX1633, 120 h
P. anaerobius A21905 = experiment: In vitro activity against anaerobes (MIC), P. anaerobius; assay type: cell-based; details: Peptostreptococcus anaerobius; Gp cocci; P. anaerobius A21905; read-out: MIC
N. gonorrheae = experiment: In vitro activity against Neisseria (MIC), N. gonorrheae; assay type: cell-based
S. pyogenes A20201 = experiment: Protective dose PD50, mice infected with lethal inoculum, oral treatment, S. pyogenes A20201; assay type: in vivo; details: Streptococcus pyogenes, 120 h
C. perfringens A9645 = experiment: microbe, parasite or virus in culture; assay type: cell-based; details: Clostridium perfringens
P. mirabilis A9554 = experiment: Protective dose PD50, mice infected with lethal inoculum, oral treatment, P. mirabilis A9554; assay type: in vivo

Work on C/C=C\C1=C(C(=O)O)N2C(=O)[C@@H](NC(=O)[C@H](N)c3ccc(O)cc3)[C@H]2SC1 [Compound 9, 7β-[D-2-amino-(p-hydroxyphenyl)acetamido]-3-[(Z)-1-propen-1-yl]-3-cephem-4-carboxylic Acid] yielded a Cmax (in vivo; im, 20 mg/kg) of 28000 ng/mL, a half-life (in vivo; im, 20 mg/kg) of 52.8 min and an AUC (in vivo; po, 20 mg/kg, AUC*) of 26000 ng·h/mL. For the same compound, the Cmax (in vivo; po, 20 mg/kg) was 15000 ng/mL, the half-life (in vivo; po, 20 mg/kg) was 114 min and the AUC (in vivo; po, 100 mg/kg, AUC) was 106000 ng·h/mL. For the same compound, the Cmax (in vivo; po, 100 mg/kg) was 56000 ng/mL, the half-life (in vivo; po, 100 mg/kg) was 114 min and the MIC (P. acnes A21933) was 0.4 µg/mL (≈ 1.03 µM). The MIC ([1]; read-out: Minimum Inhibitory Concentration Gp Ib, Mueller-Hinton agar, run 1, average of five organisms) was 0.92 µg/mL (≈ 2.36 µM), the MIC ([1]; read-out: Minimum Inhibitory Concentration Gp Ib, Mueller-Hinton agar, run 2, average of five organisms) was 0.8 µg/mL (≈ 2.05 µM) and the MIC ([1]; read-out: Minimum inhibitory Concentration Gp Ib, Test Medium Comparison, A: Mueller-Hinton agar, average values) was 0.92 µg/mL (≈ 2.36 µM). The MIC ([1]; read-out: Minimum inhibitory Concentration Gp Ib, Test Medium Comparison, B: Nutrient agar, average values) was 0.35 µg/mL (≈ 0.899 µM), the MIC (N. meningitidis; N. meningitidis A21487, Compound 9 lot 2) was 0.8 µg/mL (≈ 2.05 µM) and the MIC (N. meningitidis; N. meningitidis A21496, Compound 9 lot 2) was 0.8 µg/mL (≈ 2.05 µM). It also gave an MIC (N. meningitidis; N. meningitidis A21497, Compound 9 lot 2) of 0.8 µg/mL (≈ 2.05 µM), an MIC (N. meningitidis; Neisseria meningitidis, read-out: MIC) of 0.8 µg/mL (≈ 2.05 µM) and an MIC (N. meningitidis; Neisseria meningitidis, read-out: MIC, Geometric Mean) of 0.8 µg/mL (≈ 2.05 µM). The MIC (B. fragilis; B. fragilis A20928-1, A21900, A20935, β-lactamase (-), read-out: MIC, Geometric Mean) was 3.2 µg/mL (≈ 8.22 µM), the MIC (B. fragilis; B. fragilis A20928-1, β-lactamase (-), read-out: MIC) was 0.8 µg/mL (≈ 2.05 µM) and the MIC (B. fragilis; B. fragilis A20935, β-lactamase (-), read-out: MIC) was 0.8 µg/mL (≈ 2.05 µM). For the same compound, the MIC (B. fragilis; B. fragilis A21900, β-lactamase (-), clindamycin resistant, read-out: MIC) was 50 µg/mL (≈ 128 µM), the MIC (B. fragilis; B. fragilis A22021, β-lactamase (+), read-out: MIC) was over 100 µg/mL and the MIC (B. fragilis; B. fragilis A22053, A22021, A22693, β-lactamase (+), read-out: MIC, Geometric Mean) was over 100 µg/mL. For the same compound, the MIC (B. fragilis; B. fragilis A22053, β-lactamase (+), read-out: MIC) was 50 µg/mL (≈ 128 µM), the MIC (B. fragilis; B. fragilis A22533, β-lactamase (+), read-out: MIC) was over 100 µg/mL and the MIC (B. fragilis; B. fragilis A22693, β-lactamase (+), read-out: MIC) was over 100 µg/mL. The MIC (B. fragilis; B. fragilis A22695, A22533, β-lactamase (+), read-out: MIC, Geometric Mean) was over 100 µg/mL, the MIC (B. fragilis; B. fragilis A22695, β-lactamase (+), read-out: MIC) was over 100 µg/mL and the MIC (S. pneumoniae; S. pneumoniae A9585, read-out: MIC) was 0.2 µg/mL (≈ 0.514 µM). For the same compound, the MIC (S. pneumoniae; S. pneumoniae A15069, read-out: MIC) was 0.2 µg/mL (≈ 0.514 µM), the MIC (S. pneumoniae; S. pneumoniae A20759, read-out: MIC) was 0.2 µg/mL (≈ 0.514 µM) and the MIC (S. pneumoniae; S. pneumoniae Type I, read-out: MIC) was 0.2 µg/mL (≈ 0.514 µM). The MIC (S. pneumoniae; S. pneumoniae Type II, I, III, A9585, A15069, read-out: MIC, Geometric Mean) was 0.2 µg/mL (≈ 0.514 µM), the MIC (S. pneumoniae; S. pneumoniae Type II, read-out: MIC) was 0.2 µg/mL (≈ 0.514 µM) and the MIC (S. pneumoniae; S. pneumoniae Type III, read-out: MIC) was 0.2 µg/mL (≈ 0.514 µM). The MIC (Gp, rods; Gp, cocci) was 0.95 µg/mL (≈ 2.44 µM), the T1/2 ([2]; im, 20 mg/kg) was 0.48 and the T1/2 ([2]; po, 20 mg/kg) was 1.7. For the same compound, the T1/2 ([2]; po, 100 mg/kg) was 1.3 h, the ED50 (S. aureus Smith; 50% survival for 5 days, groups of 5 mice) was 0.14 mg/kg and the ED50 (S. aureus Smith; separate run of Compound 42 and BMY28100, cephalexin/cefadroxil controls not available) was 0.16 mg/kg. The “difference in MIC between the two media” value [3] was “less than three fold”, the MIC (H. influenzae; H. influenzae A9729, read-out: MIC) was 0.8 µg/mL (≈ 2.05 µM) and the MIC (H. influenzae; H. influenzae A9833, read-out: MIC) was 0.8 µg/mL (≈ 2.05 µM). It also gave an MIC (H. influenzae; H. influenzae A20177, read-out: MIC) of 0.8 µg/mL (≈ 2.05 µM), an MIC (H. influenzae; H. influenzae A20193, read-out: MIC) of 0.8 µg/mL (≈ 2.05 µM) and an MIC (H. influenzae; H. influenzae A21523, read-out: MIC) of 0.8 µg/mL (≈ 2.05 µM). It also gave an MIC (H. influenzae; H. influenzae A22482, read-out: MIC) of 0.8 µg/mL (≈ 2.05 µM), an MIC (H. influenzae; H. influenzae A22483, read-out: MIC) of 0.8 µg/mL (≈ 2.05 µM) and an MIC (H. influenzae; H. influenzae, seven strains above, read-out: MIC, Geometric Mean) of 0.8 µg/mL (≈ 2.05 µM). It also gave an MIC (S. pyogenes; S. pyogenes A9604, read-out: MIC) of 0.05 µg/mL (≈ 0.128 µM), an MIC (S. pyogenes; S. pyogenes A15040, read-out: MIC) of 0.05 µg/mL (≈ 0.128 µM) and an MIC (S. pyogenes; S. pyogenes A20065, read-out: MIC) of 0.05 µg/mL (≈ 0.128 µM). The MIC (S. pyogenes; S. pyogenes A20201, read-out: MIC) was 0.1 µg/mL (≈ 0.257 µM), the MIC (S. pyogenes; S. pyogenes Dick, read-out: MIC) was 0.05 µg/mL (≈ 0.128 µM) and the MIC (S. pyogenes; S. pyogenes S-23, Dick, A9604, A20065, A15040, read-out: MIC, Geometric Mean) was 0.05 µg/mL (≈ 0.128 µM). The MIC (S. pyogenes; S. pyogenes S-23, read-out: MIC) was 0.05 µg/mL (≈ 0.128 µM), the MIC ([4]; read-out: Minimum Inhibitory Concentration Gp Ia, Mueller-Hinton agar, run 1, average of five organisms) was 0.23 µg/mL (≈ 0.591 µM) and the MIC ([4]; read-out: Minimum Inhibitory Concentration Gp Ia, Mueller-Hinton agar, run 2, average of five organisms) was 0.35 µg/mL (≈ 0.899 µM). The MIC ([4]; read-out: Minimum inhibitory Concentration Gp Ia, Test Medium Comparison, A: Mueller-Hinton agar, average values) was 0.23 µg/mL (≈ 0.591 µM), the MIC ([4]; read-out: Minimum inhibitory Concentration Gp Ia, Test Medium Comparison, B: Nutrient agar, average values) was 0.17 µg/mL (≈ 0.437 µM) and the ED50 (E. coli Juhl; Escherichia coli, po, 120 h, oral, 50% survival for 5 days, groups of 5 mice, read-out: Protective dose (PD50), E. coli Juhl) was 1.2 mg/kg. For the same compound, the “activity against the Gram- infection” value (E. coli Juhl; in words) was “more active against the Gram- infection”, the ED50 (H. influenza A9729) was 1.8 mg/kg and the ED50 (S. aureus BX-1633) was 2.2 mg/kg. For the same compound, the MIC (P. anaerobius A21905) was 0.8 µg/mL (≈ 2.05 µM), the MIC (N. gonorrheae; N. gonorrheae A20142, Compound 9 lot 2) was 0.8 µg/mL (≈ 2.05 µM) and the MIC (N. gonorrheae; N. gonorrheae A20143, Compound 9 lot 2) was 0.8 µg/mL (≈ 2.05 µM). For the same compound, the MIC (N. gonorrheae; N. gonorrheae A20154, Compound 9 lot 2) was 0.8 µg/mL (≈ 2.05 µM), the MIC (N. gonorrheae; N. gonorrheae A20155, Compound 9 lot 2) was 0.8 µg/mL (≈ 2.05 µM) and the MIC (N. gonorrheae; read-out: MIC) was 0.8 µg/mL (≈ 2.05 µM). For the same compound, the MIC (N. gonorrheae; read-out: MIC, Geometric Mean) was 0.8 µg/mL (≈ 2.05 µM), the ED50 (S. pyogenes A20201) was 0.11 mg/kg and the MIC (C. perfringens A9645) was 0.4 µg/mL (≈ 1.03 µM). The “Protective Dose PD50” value (P. mirabilis A9554) was 1.8.
